# Laboratory results as given in patent publication US20240123022A1, “A STABLE ANTI-ANGIOGENIC AND ANTI-INFLAMMATORY PHARMACEUTICAL FORMULATION AND PHARMACEUTICAL COMBINATION FOR TREATMENT AND PREVENTION OF PSORIASIS” (priority 2021, published 2024).
# Tests used:
# [1] = Stability of IS217 API, accelerated condition 5 ± 3° C.; assay type: physicochemical
# Method: The purpose of stability testing is to provide evidence on how the quality of a drug substance or drug product varies with time under the influence of a variety of environmental factors such as temperature, humidity, etc. and to establish a re-test period for the drug substance or a shelf life for the drug product and recommended storage conditions. The study was conducted according to the WHO and Schedule-Y guidelines.
# The drug substance is a lyophilized white fluffy powder, and it was filled at sterile condition in glass injection vial which has airlock-rubber capping. This container closure system is the same as or simulates the packaging proposed for storage and distribution.
# This study has included testing of those attributes of the drug substance that are susceptible to change during storage and are likely to influence quality, safety and/or efficacy. The testing was covered, as appropriate, the physical and chemical attributes.
# The following test attributes have been selected according to above said guidelines. • Appearance; odour; colour; colour of solution (when the drug substance is soluble in solvent); clarity of solution; degradation and assessment of container closure system
# The studies were conducted under appropriate storage conditions (with appropriate tolerances) that test drug substance thermal stability and its sensitivity to moisture. The drug substance is intended to store for 24 months. Accordingly, long term stability studies were done for 24 months. The details of the storage conditions have been furnished hereunder.
# Name of the product: IS217; Batch size: 200 m·mol; Storage conditions: 5±3° C.
# [2] = tested on: IMQ induced psoriasis mouse model; assay: Proof of concept efficacy study, SC and topical route, IMQ-induced psoriasis mice model; assay type: in vivo, BALB/c mice
# Method: The study objective was to validate the efficacy of IS 217 through Parental route and to study the efficacy of 1% IS 217 Cream Formulation through topically and to fix dose levels and treatment mode for further proof of concept studies and included with SC dose ([…] and 1.2 mg/kg) as proof of concept studies.
# The study was conducted to evaluate efficacy of test compound IS217 (topical and subcutaneous route) on IMQ induced psoriasis mouse model.
# Test items: IS217 cream formulation (topical treatment) and IS217 powder vials (subcutaneous treatment) along with placebo were provided.
# Standard Drugs: 1.0.01% Batamethasone cream (Betnovate®); 100 mg/4 ml bevacuzimab (Avastin®)
# Study animals: 8-9 weeks old male BALB/c mice were used for the study.
# Treatment period was from day 1 to day 14. IMQ cream application: 5% IMQ cream, 65 mg was applied on shaved back and 5 mg on each ear during study period. Treatment regimen: treatment to be given twice a day-test drug high dose. 2-hour difference was taken between application of IMQ and application of test drug. 8-hour difference was taken between second application of test drug.
# Required quantity of IS217 compounds was weighed on Sartorius weighing balance. Weighed amount was dissolved in 10% Propylene glycol.
# • IMQ (Imigod, Glenmark pharmaceuticals) was weighed every day prior to application. • 65 mg of 5% IMQ cream was applied on shaved back of animals with help of spatula. 5 mg IMQ cream was applied on each ear of mouse. • IMQ application was done every day for 14 days and on day 15 studies were terminated. (Except for group 4 and group 5) • Group 4 was terminated on day 17 (post 14 days of treatment) • Group 5 was terminated on day 21 (post 14 days of treatment) • Group 4 and 5 received similar duration of test formulation as per group 3. • Group 4 received 17 days IMQ application, group 5 received 20 days IMQ application.
# • Treatment to all the groups were done two hours post IMQ cream application • Formulation for topical application were weighted daily on Sartorius balance • Formulation for SC treatment was prepared fresh every day as per procedure mentioned above. • Standard drug Betamethasone was weighed daily and applied topically to respective treatment group • Bevacizumab was prepared fresh at the time of dosing. • All the treatments were given as per study design
# HaCaT cells = assay: TUNEL assay; assay type: cell-based, human; settings: for % increase in TUNEL-Positive cell population w.r.t. control (untreated cells): 48 h
# Method: Terminal deoxynucleotidyl transferase (TdT) dUTP Nick-End Labeling (TUNEL) assay has been designed to detect apoptotic cells that undergo extensive DNA degradation during the late stages of apoptosis. […] Cells were treated with test item (IS217 of 100 μg/ml-5000 μg/ml) and positive controls like curcumin (10 μM and 20 μM), anthralin (1 μM) and betullininc acid (10 μg/ml, 20 μg/ml, 50 μg/ml). After about 48 hours of treatment, cells were analysed for the apoptotic effect via TUNEL assay. Absorbance was measured using ELISA reader (Table 1).
# [3] = tested on: isolated rabbit erythrocyte; assay type: cell-based
# Method: This study was conducted to test whether IS217 induced haemolysis or not. The study was conducted in IV intended concentration.
substance,measurement,setting,value
"H-FAKKFAKKFK-OH [IS217, H-Phe-Ala-Lys-Lys-Phe-Ala-Lys-Lys-Phe-Lys-OH]",API calculated on the anhydrous basis (OAB),"[1]; 5 ± 3° C., 1 M",99.36%
same,"Related substances (By HPLC), Any Max. Impurity","[1]; 5 ± 3° C., 1 M",0.52%
same,"Related substances (By HPLC), Total Impurity","[1]; 5 ± 3° C., 1 M",0.63%
same,Solubility (Soluble in water),"[1]; 5 ± 3° C., 1 M",Complies
same,Water Content (By Karl Fischer-Titrator),"[1]; 5 ± 3° C., 1 M",4.61% w/w
same,"Appearance, change","[1]; 5 ± 3° C., 1st month",No change
same,"Assessment of container closure system, change","[1]; 5 ± 3° C., 1st month",No change
same,"Clarity of solution, change","[1]; 5 ± 3° C., 1st month",No change
same,"Color of Solution, change","[1]; 5 ± 3° C., 1st month",No change
same,"Color, change","[1]; 5 ± 3° C., 1st month",No change
same,"Odor, change","[1]; 5 ± 3° C., 1st month",No change
same,API calculated on the anhydrous basis (OAB),"[1]; 5 ± 3° C., 2 M",99.25%
same,"Related substances (By HPLC), Any Max. Impurity","[1]; 5 ± 3° C., 2 M",0.53%
same,"Related substances (By HPLC), Total Impurity","[1]; 5 ± 3° C., 2 M",0.76%
same,Solubility (Soluble in water),"[1]; 5 ± 3° C., 2 M",Complies
same,Water Content (By Karl Fischer-Titrator),"[1]; 5 ± 3° C., 2 M",4.55% w/w
same,"Appearance, change","[1]; 5 ± 3° C., 2nd month",No change
same,"Assessment of container closure system, change","[1]; 5 ± 3° C., 2nd month",No change
same,"Clarity of solution, change","[1]; 5 ± 3° C., 2nd month",No change
same,"Color of Solution, change","[1]; 5 ± 3° C., 2nd month",No change
same,"Color, change","[1]; 5 ± 3° C., 2nd month",No change
same,"Odor, change","[1]; 5 ± 3° C., 2nd month",No change
same,API calculated on the anhydrous basis (OAB),"[1]; 5 ± 3° C., 3 M",99.06%
same,"Related substances (By HPLC), Any Max. Impurity","[1]; 5 ± 3° C., 3 M",0.59%
same,"Related substances (By HPLC), Total Impurity","[1]; 5 ± 3° C., 3 M",0.94%
same,Solubility (Soluble in water),"[1]; 5 ± 3° C., 3 M",Complies
same,Water Content (By Karl Fischer-Titrator),"[1]; 5 ± 3° C., 3 M",4.60% w/w
same,"Appearance, change","[1]; 5 ± 3° C., 3rd month",No change
same,"Assessment of container closure system, change","[1]; 5 ± 3° C., 3rd month",No change
same,"Clarity of solution, change","[1]; 5 ± 3° C., 3rd month",No change
same,"Color of Solution, change","[1]; 5 ± 3° C., 3rd month",No change
same,"Color, change","[1]; 5 ± 3° C., 3rd month",No change
same,"Odor, change","[1]; 5 ± 3° C., 3rd month",No change
same,API calculated on the anhydrous basis (OAB),"[1]; 5 ± 3° C., 6 M",99.22%
same,"Related substances (By HPLC), Any Max. Impurity","[1]; 5 ± 3° C., 6 M",0.43%
same,"Related substances (By HPLC), Total Impurity","[1]; 5 ± 3° C., 6 M",0.78%
same,Solubility (Soluble in water),"[1]; 5 ± 3° C., 6 M",Complies
same,Water Content (By Karl Fischer-Titrator),"[1]; 5 ± 3° C., 6 M",4.62% w/w
same,"Appearance, change","[1]; 5 ± 3° C., 6th month",No change
same,"Assessment of container closure system, change","[1]; 5 ± 3° C., 6th month",No change
same,"Clarity of solution, change","[1]; 5 ± 3° C., 6th month",No change
same,"Color of Solution, change","[1]; 5 ± 3° C., 6th month",No change
same,"Color, change","[1]; 5 ± 3° C., 6th month",No change
same,"Odor, change","[1]; 5 ± 3° C., 6th month",No change
same,API calculated on the anhydrous basis (OAB),"[1]; 5 ± 3° C., Initial",99.28%
same,"Related substances (By HPLC), Any Max. Impurity","[1]; 5 ± 3° C., Initial",0.60%
same,"Related substances (By HPLC), Total Impurity","[1]; 5 ± 3° C., Initial",0.72%
same,Remark,"[1]; 5 ± 3° C., Initial",Complies
same,Solubility (Soluble in water),"[1]; 5 ± 3° C., Initial",Complies
same,Water Content (By Karl Fischer-Titrator),"[1]; 5 ± 3° C., Initial",4.66% w/w
same,stability of IS217 API,[1]; 6 months at accelerated condition 5 ± 3° C.,stable
same,stability of drug substance,"[1]; refrigerator (5 ± 3° C.) conditions for 24 months, concluded from Tables 13 to 16",stable
same,only epidermal hyperplasia (skin),[2]; 0.6 mg/kg SC,reduced
same,"IL-17 level in ear, skin, and serum matrix",[2]; 0.6 mg/kg and 1.2 mg/kg SC,significant decrease
same,TNF-α in ear homogenates samples,[2]; 0.6 mg/kg and 1.2 mg/kg SC,decreased
same,ear thickness,[2]; 0.6 mg/kg and 1.2 mg/kg SC,significantly decreased
same,overall efficacy versus the standard drug (Bevacizumab),[2]; 0.6 mg/kg and 1.2 mg/kg SC,comparable
same,"psoriatic score, ear weight",[2]; 0.6 mg/kg and 1.2 mg/kg SC,significant decrease
same,"scaling, erythema and skin thickness",[2]; 0.6 mg/kg and 1.2 mg/kg SC,decrease
same,"Epidermal hyperplasia, parakeratosis, leukocyte infiltration","[2]; 0.6 mg/kg and 1.2 mg/kg, vs vehicle",significantly decreased
same,"epidermal hyperplasia, parakeratosis in skin",[2]; 1.2 mg/kg SC,reduced
same,spleen weight,[2]; SC administration,Decrease
same,% increase in TUNEL-Positive cell population w.r.t. control (untreated cells),HaCaT cells; 500 μg/ml,−25.0%
same,% increase in TUNEL-Positive cell population w.r.t. control (untreated cells),HaCaT cells; 1000 μg/ml,−20.4%
same,% increase in TUNEL-Positive cell population w.r.t. control (untreated cells),HaCaT cells; 2000 μg/ml,−25.4%
same,% increase in TUNEL-Positive cell population w.r.t. control (untreated cells),HaCaT cells; 5000 μg/ml,−40.7%
same,increase in apoptotic cells (TUNEL positive population),"HaCaT cells; tested concentration range 100-5000 μg/ml, vs untreated",No increase
same,mean hemoglobin value compared with negative control and positive control,[3],non-significant
same,mean haemolytic index,[3]; red cells of rabbit,0%
